From US7410986B2, “4-6-diphenyl pyridine derivatives as antiinflammatory agents” (Bayer Aktiengesellschaft, priority 2000, dated 2008)
Counter-ions that a name gives are not always drawn. Like-named read-outs stand apart in the source and are kept apart here.

Experiments:
human IKK-β = biological target: T1, human IKK-β (Homo sapiens, UniProt O14920); test: IKK-β kinase inhibitory assay; format: biochemical; details: compounds of about 40 to 90% purity, read-out: In vitro activity grade (invitro, IC50)
T1 construct: A cDNA fragment encoding human IKK-β open reading frame was generated by PCR; His; made in house; host or cells: Sf21 insect cells (baculovirus); the GST-IκBα substrate was made in E. coli
T1 sequence (O14920 1-756): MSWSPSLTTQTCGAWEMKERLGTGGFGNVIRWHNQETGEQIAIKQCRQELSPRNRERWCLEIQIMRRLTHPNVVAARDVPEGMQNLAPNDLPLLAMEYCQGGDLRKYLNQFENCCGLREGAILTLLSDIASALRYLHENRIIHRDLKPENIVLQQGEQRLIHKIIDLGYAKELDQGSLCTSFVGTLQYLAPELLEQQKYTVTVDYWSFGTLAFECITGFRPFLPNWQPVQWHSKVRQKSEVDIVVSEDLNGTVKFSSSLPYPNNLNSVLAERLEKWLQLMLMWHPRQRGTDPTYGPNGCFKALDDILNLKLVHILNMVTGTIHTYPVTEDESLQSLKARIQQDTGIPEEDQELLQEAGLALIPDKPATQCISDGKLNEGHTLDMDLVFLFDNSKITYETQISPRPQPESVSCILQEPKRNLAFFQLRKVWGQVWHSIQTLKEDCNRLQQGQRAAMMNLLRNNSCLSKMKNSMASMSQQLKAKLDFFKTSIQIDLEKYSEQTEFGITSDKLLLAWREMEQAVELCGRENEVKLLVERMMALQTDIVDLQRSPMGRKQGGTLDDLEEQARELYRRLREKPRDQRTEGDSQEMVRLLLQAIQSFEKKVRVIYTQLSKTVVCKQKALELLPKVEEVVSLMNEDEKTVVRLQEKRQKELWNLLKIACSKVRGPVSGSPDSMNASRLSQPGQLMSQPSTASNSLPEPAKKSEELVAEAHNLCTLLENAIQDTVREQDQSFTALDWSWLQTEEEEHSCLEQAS
Text: IKK-β Kinase Inhibitory Assay.
• (1) Preparation of IKK-β Kinase Protein. • A cDNA fragment encoding human IKK-β open reading frame was generated by PCR with the use of a pair of primers designed from the published sequence (Woronicz J D et al. (1997) Science 278,866-869). A template was obtained from Quickclone cDNA (Clontech) using Elongase™ Amplification kit (Life Technologies). The DNA fragments generated by PCR were gel-purified and subcloned into pBluescript. The cDNA fragment cloned in pBluescript was inserted into pcDNA3.1/His C KpnI/NotI, and transferred into pVL1393 SmaI/XbaI (Pharmingen) to construct a baculovirus transfer vector. Then the vector, together with the linearized baculovirus (BaculoGold™, Pharmingen) was used to transfect Sf21 cells (Invitrogen, San Diego, Calif.). Generated recombinant baculovirus was cloned and amplified in Sf21 cells, grown in TNM-FH insect cell medium (Life Technologies, Inc.) supplemented with 10% FCS, […] Gentamycin, 0.1% Pluronic F-68 (Life Technologies, Inc.) as suspension culture (200 ml in 1 L Erlenmeyer flask; 27° C.; 130 rpm). Sf21 cells were infected with this amplified virus with a multiplicity of infection of 5 following standard protocols (Crossen R, Gruenwald S (1997) Baculovirus Expression Vector System Instruction Manual, Pharmingen Corporation) and harvested 48 hrs. later. The cells were lysed to obtain the produced chimeric protein of IKK-β kinase fused by histidine (His-tagged IKK-beta). • (2) The Preparation of Purified GST-IκBα Fusion Proteins • An expression vector containing the nucleotide sequence encoding fusion protein of GST with amino acid residues 1 to 54 of IκBα under the control of an IPTG-inducible promoter was constructed. The expression vector was introduced in E. coli and the transformant was cultured and lysed to obtain a GST-IκBα fusion protein. Then the resulting GST-IκBα fusion protein was purified and biotinated for kinase assay. • (3) The Measurement of IKK-β Kinase Activity • The 96-well format kinase assay of IKK-β was performed to test the inhibitory activity of the compounds of the present invention. First, 5 μl of a test compound was put in the presence of 2.5% dimethyl sulfoxide (DMSO) in each well in a U-bottomed 96-well plate (Falcon). For control wells of background (BG) and total phosphorylation (TP), 5 μl of 2.5% DMSO was put. Recombinant IKK-β (final 0.6 μg/ml) and bio-GST-IκBα (1-54) (final 0.2 μM) were diluted in 25 μl of 2×kinase buffer β (40 mM Tris-HCl, pH 7.6, 40 mM MgCl2, 40 mM β-glycerophosphate, 40 mM p-nitrophenyl-phosphate, 2 mM EDTA, 40 mM creatine phosphate, 2 mM DTT, 2 mM Na3VO4, 0.2 mg/ml BSA and 0.8 mM phenylmethylsulfonyl fluoride) and transferred to the 96-well plate. Bio-GST-IκBα (1-54) in 25 μl of 2×kinase buffer β without IKK-β was transferred to BG wells. Then 20 μl of 12.5 μM ATP, 62.5 μCi/ml [γ-^33P] ATP (Amersham Pharmacia Biotech) was added and the resulting mixture was incubated for 2 hrs. at room temperature. The kinase reactions were terminated by the addition of 150 μl of termination buffer (100 mM EDTA, 1 mg/ml BSA, 0.2 mg NaN3). One handred and fifty μl of the sample was transferred to a streptavidin-coated, white MTP (Steffens Biotechniche Analysen GmbH #08114E14. FWD) to capture the biotinylated substrates. After 1 hr. of incubation, non-bound radioactivity was eliminated by washing the wells five times with 300 μl of washing buffer including 0.9% NaCl and 0.1% (w/v) Tween-20 with the use of a MW-96 plate washer (BioTec). The bound radioactivity was determined after the addition of 170 μl MicroScint-PS scintillation cocktail (Packard) using a TopCount scintillation counter. Syk Tyrosine Kinase Inhibitory Assay for Selectivity. • (1) Preparation of Syk Protein • A cDNA fragment encoding human Syk openreading frame was cloned from total RNA of human Burkitt's lymphoma B cell lines, Raji (American Type Culture Collection), with the use of RT-PCR method. […]

[1] = tested on: RANTES production in response to TNF-α from A549 cells; test: RANTES production in response to TNF-α from A549 cells; format: cell-based, human; details: 100 ng/ml TNF-α, compounds of about 40 to 90% purity, read-out: Cellular activity grade (A549, IC50)

IC50 (human IKK-β) [nM]	IC50 ([1]; Homo sapiens, A549, 24 h) [nM]	IC50 ([1]; 24 hrs) [nM]	SMILES
500 to 2000	> 10000		N#Cc1c(-c2cccc(NC(=O)C(O)CCC(=O)O)c2)cc(-c2ccccc2O)nc1N (stereo not shown) [Example 1-2, Sodium 5-({3-[2-amino-3-cyano-6-(2-hydroxyphenyl)-4-pyridinyl]phenyl}amino)-4-hydroxy-5-oxopentanoate]
500 to 2000	> 10000		N#Cc1c(-c2ccccc2C(=O)O)cc(-c2ccccc2O)nc1N [Example 5-05]
< 500	1000 to 10000		CC(C)C[C@H](N)C(=O)Nc1cc(-c2cc(-c3ccccc3O)nc(N)c2C#N)ccc1N1CCC(NC(=O)C(F)(F)F)C1 (stereo partly shown) [Example 3-16]
500 to 2000	1000 to 10000		CCN1CCC(N(CC)CCC(=O)Nc2cccc(-c3cc(-c4ccccc4O)nc(N)c3C#N)c2)C1 (stereo not shown) [Example 4-16]
500 to 2000	1000 to 10000		CN1CCN(CCC(=O)Nc2cccc(-c3cc(-c4ccccc4O)nc(N)c3C#N)c2)CC1 [Example 4-10]
500 to 2000	> 10000		COc1cccc(O)c1-c1cc(-c2cccc(NC(=O)C3CCC(=O)O3)c2)c(C#N)c(N)n1 (stereo not shown) [Example 1-12]
> 10000	> 10000		CC(=O)Nc1nc(-c2ccccc2O)cc(-c2cccc(NC(=O)CCN3CCCCC3)c2)c1C#N [Example 2-06]
500 to 2000	1000 to 10000		N#Cc1c(-c2ccc(N3CCCC3)c(NC(=O)CCN3CCCCC3)c2)cc(-c2ccccc2O)nc1N [Example 3-1, N-[5-[2-amino-3-cyano-6-(2-hydroxyphenyl)-4-pyridinyl]-2-(1-pyrrolidinyl)phenyl]-3-(1-piperidinyl)propanamide hydrochloride]
500 to 2000	> 10000		N#Cc1c(-c2cccc(NC(=O)[C@@H](N)CC(=O)O)c2)cc(-c2ccccc2O)nc1N [Example 2-03]
500 to 2000	> 10000		N#Cc1c(-c2ccc(C(=O)O)cc2)cc(-c2ccccc2O)nc1N [Example 5-02]
500 to 2000	> 10000		COc1cccc(O)c1-c1cc(-c2cccc(NC(=O)C(O)CCC(=O)O)c2)c(C#N)c(N)n1 (stereo not shown) [Example 1-13]
2000 to 10000	1000 to 10000		CC(C)C[C@H](N)C(=O)Nc1cc(-c2cc(-c3ccccc3O)nc(N)c2C#N)ccc1N(C)Cc1ccccc1 [Example 3-15]
2000 to 10000	> 10000		COc1ccc(O)c(-c2cc(-c3cccc(NC(=O)C(O)CCC(=O)O)c3)c(C#N)c(N)n2)c1 (stereo not shown) [Example 1-18]
< 500	1000 to 10000		N#Cc1c(-c2cccc(O)c2)cc(-c2ccccc2O)nc1N [Example 1-23]
< 500	> 10000		N#Cc1c(-c2ccc(Cl)c(NC(=O)C(O)CCC(=O)O)c2)cc(-c2ccccc2O)nc1N (stereo not shown) [Example 1-15]
2000 to 10000	> 10000		NC(=O)c1c(-c2cccc(NC(=O)C(O)CCC(=O)O)c2)cc(-c2ccccc2O)nc1N (stereo not shown) [Example 7-2, Sodium 5-({3-[2-amino-3-(aminocarbonyl)-6-(2-hydroxyphenyl)-4-pyridinyl]-phenyl}amino)-4-hydroxy-5-oxopentanoate]

IC50 (human IKK-β) [nM]	IC50 ([1]; Homo sapiens, A549, 24 h) [nM]	IC50 ([1]; 24 hrs) [nM]	SMILES
< 500	1000 to 10000		N#Cc1c(-c2ccc(N3CCCC3)c(NC(=O)CCN)c2)cc(-c2ccccc2O)nc1N [Example 3-04]
500 to 2000	1000 to 10000		N#Cc1c(-c2cccc(NC(=O)CN3CCN(C4CCCCC4)CC3)c2)cc(-c2ccccc2O)nc1N [Example 4-04]
500 to 2000	> 10000		N#Cc1c(-c2cccc(NC(=O)CCN3CCCCC3)c2)cc(-c2ncccc2O)nc1N [Example 2-17]
> 10000	1000 to 10000		N#Cc1c(-c2ccc(Cl)c(N)c2)cc(-c2ccccc2O)nc1N [Example 2-19]
2000 to 10000	1000 to 10000		N#Cc1c(-c2cccc(NC(=O)CN3CCN(C(=O)c4ccco4)CC3)c2)cc(-c2ccccc2O)nc1N [Example 4-03]
500 to 2000	1000 to 10000		CN1CCN(CC(=O)Nc2cccc(-c3cc(-c4ccccc4O)nc(N)c3C#N)c2)CC1 [Example 4-02]
< 500	> 10000		COCCNCC(=O)Nc1cc(-c2cc(-c3ccccc3O)nc(N)c2C#N)ccc1Cl [Example 4-25]
2000 to 10000	1000 to 10000		CCOC(=O)C1CCCN(CCC(=O)Nc2cccc(-c3cc(-c4ccccc4O)nc(N)c3C#N)c2)C1 (stereo not shown) [Example 4-27]
< 500	> 10000		N#Cc1c(-c2cccc(NC(=O)CNCCCO)c2)cc(-c2ccccc2O)nc1N [Example 4-20]
500 to 2000	1000 to 10000		N#Cc1c(-c2cccc(NC(=O)CN3CC=CC3)c2)cc(-c2ccccc2O)nc1N [Example 4-14]
> 10000		> 10000	N#Cc1c(-c2cccc(N)c2)cc(-c2ccccc2O)nc1N [Example 1-08]
500 to 2000	1000 to 10000		N#Cc1c(-c2cccc(NC(=O)CCN3CCCC4CCCCC43)c2)cc(-c2ccccc2O)nc1N (stereo not shown) [Example 4-15]
500 to 2000	> 10000		CCOC(=O)C1CCN(CCC(=O)Nc2cccc(-c3cc(-c4ccccc4O)nc(N)c3C#N)c2)CC1 [Example 4-26]
500 to 2000		> 10000	N#Cc1c(-c2cccc(NC(=O)C[C@H](N)C(=O)O)c2)cc(-c2ccccc2O)nc1N [Example 2-02]
500 to 2000	1000 to 10000		CC(=O)Nc1ccc(-c2cc(-c3ccccc3O)nc(N)c2C#N)cc1OCCN1CCCCC1 [Example 9, N-{4-[2-amino-3-cyano-6-(2-hydroxyphenyl)-4-pyridinyl]-2-[2-(1-piperidinyl)ethoxy]phenyl}acetamide ditrifluoroacetate]
500 to 2000		> 10000	N#Cc1c(-c2cccc(NC(=O)C3CCC(=O)O3)c2)cc(-c2ccccc2O)nc1N (stereo not shown) [Example 1-03]
